According to ChEMBL document CHEMBL1201862, “PubChem BioAssay data set” (2004):
Activity calls are given as the source filed them.

Columns and labels:
[1] = inhibitors of HIV Env-driven cell fusion, dose response, cherry-pick (AID 652057); type: functional, cell-based
[2] = inhibitors of clade B AD8 Env fusion, dose response, cell-based, cherry-pick (AID 652062); type: functional;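 further: luciferase signal from cell-cell fusion driven by HIV-1 clade B AD8 Env; potency is for inhibitors of fusion seen as a drop in luminescence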
HEK293 = assay: inhibitors of LMP1-driven NF-kB reporter, dose response, cell-based, HEK293, luciferase, cherry-pick (AID 588343); type: functional; conditions: Homo sapiens
[3] = THP-1 cell cytotoxicity, dose response, cytotoxicity control for non-replicating M. tuberculosis project (AID 489025); type: functional
cells = type: functional
Large T antigen = Large T antigen (Simian virus 40, UniProt P03070); type: functional, Betapolyomavirus macacae;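 further: Confirmatory-stage PubChem screen for compounds that inhibit SV40 T antigen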
[4] = NIH-3T3 fibroblast cytotoxicity, dose response, cytotoxicity control, cell-based, fluorescence, Alamar Blue, secondary assay (AID 2327); type: functional;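 further: NIH-3T3 mouse fibroblasts cultured with fluconazole at 8 µg/mL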
[5] = inhibitors of SNCA 5'UTR-driven reporter translation, confirmation, H4 neuroglioma cells, luminescence (AID 1988); type: functional, cell-based
[6] = Luminescence Cell-Based Dose Response HTS to Identify Inhibitors of 5'UTR Stem-Loop Driven Prion Protein mRNA Translation in H4 Neuroglioblastoma Cells. [Related pubchem assays: 1827 (Project Summary), 1813 (Primary HTS)]; type: functional
[7] = P. falciparum ATP4 D1247Y mutant growth inhibitors, dose response, NITD609-resistant line, SYBR Green, dry powder (AID 1159571); type: functional, cell-based;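 further: parasites synchronized at ring stage by sorbitol before testing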
[8] = P. falciparum Dd2 growth inhibitors, dose response, SYBR Green, cherry-picked samples (AID 1159567); type: functional, cell-based
[9] = P. falciparum 3D7-ScDHODH growth inhibitors, dose response, SYBR Green, dry powder samples (AID 1159570); type: functional, cell-based;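 further: parasite growth measured after 72 hours of compound exposure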
[10] = P. falciparum Dd2 growth inhibitors, dose response, SYBR Green, dry powder samples (AID 1159566); type: functional, cell-based;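 further: potency for growth inhibition with lower SYBR green DNA signal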
[11] = molecular target: T1, RNA-binding protein pos-1 (Caenorhabditis elegans, UniProt G5EF15); assay: inhibitors of POS-1/mex-3 RNA binding, dose response, biochemical, fluorescence polarization (AID 1964);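 further: purified POS-1 fused to maltose binding protein made in E. coli; potency of compounds blocking POS-1 binding to fluorescent RNA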
T1 sequence (G5EF15 whole entry): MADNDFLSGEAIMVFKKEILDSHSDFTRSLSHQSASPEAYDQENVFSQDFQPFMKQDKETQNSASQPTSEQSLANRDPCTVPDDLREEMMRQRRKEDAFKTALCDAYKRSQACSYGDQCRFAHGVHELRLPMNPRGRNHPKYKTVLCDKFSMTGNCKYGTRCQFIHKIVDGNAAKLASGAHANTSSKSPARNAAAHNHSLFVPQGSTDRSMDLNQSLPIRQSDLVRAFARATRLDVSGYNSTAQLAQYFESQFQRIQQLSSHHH

[12] = molecular target: T2, Heat shock factor protein 1 (Mus musculus, UniProt P38532); assay: HSF1 potentiators in luciferase reporter cells, confirmation, cell-based, NIH3T3, luminescence, dose retest (AID 435004); type: functional;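 further: stress induced by proteasome inhibitor MG132 added 30 min after compound; luciferase reporter driven by HSF1 response element in NIH3T3 cells; actives raise luminescence as potentiators of the MG132 stress response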
T2 sequence (P38532 whole entry): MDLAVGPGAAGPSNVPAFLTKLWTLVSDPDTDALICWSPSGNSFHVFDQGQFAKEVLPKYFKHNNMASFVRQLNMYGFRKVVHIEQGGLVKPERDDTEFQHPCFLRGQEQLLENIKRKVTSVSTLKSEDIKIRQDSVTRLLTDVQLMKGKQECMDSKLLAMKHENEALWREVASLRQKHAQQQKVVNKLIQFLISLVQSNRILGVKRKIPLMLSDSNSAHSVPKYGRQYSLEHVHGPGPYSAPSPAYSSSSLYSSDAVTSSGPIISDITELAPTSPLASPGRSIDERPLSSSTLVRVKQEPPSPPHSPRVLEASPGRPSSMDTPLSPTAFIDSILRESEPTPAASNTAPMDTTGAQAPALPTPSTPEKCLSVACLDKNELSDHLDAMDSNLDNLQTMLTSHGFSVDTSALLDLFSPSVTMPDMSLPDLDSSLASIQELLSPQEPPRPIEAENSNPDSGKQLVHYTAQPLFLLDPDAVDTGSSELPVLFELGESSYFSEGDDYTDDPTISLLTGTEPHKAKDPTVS

[13] = molecular target: T3, Histone-lysine N-methyltransferase NSD2 (Homo sapiens, UniProt O96028); type: biochemical
T3 sequence (O96028 whole entry): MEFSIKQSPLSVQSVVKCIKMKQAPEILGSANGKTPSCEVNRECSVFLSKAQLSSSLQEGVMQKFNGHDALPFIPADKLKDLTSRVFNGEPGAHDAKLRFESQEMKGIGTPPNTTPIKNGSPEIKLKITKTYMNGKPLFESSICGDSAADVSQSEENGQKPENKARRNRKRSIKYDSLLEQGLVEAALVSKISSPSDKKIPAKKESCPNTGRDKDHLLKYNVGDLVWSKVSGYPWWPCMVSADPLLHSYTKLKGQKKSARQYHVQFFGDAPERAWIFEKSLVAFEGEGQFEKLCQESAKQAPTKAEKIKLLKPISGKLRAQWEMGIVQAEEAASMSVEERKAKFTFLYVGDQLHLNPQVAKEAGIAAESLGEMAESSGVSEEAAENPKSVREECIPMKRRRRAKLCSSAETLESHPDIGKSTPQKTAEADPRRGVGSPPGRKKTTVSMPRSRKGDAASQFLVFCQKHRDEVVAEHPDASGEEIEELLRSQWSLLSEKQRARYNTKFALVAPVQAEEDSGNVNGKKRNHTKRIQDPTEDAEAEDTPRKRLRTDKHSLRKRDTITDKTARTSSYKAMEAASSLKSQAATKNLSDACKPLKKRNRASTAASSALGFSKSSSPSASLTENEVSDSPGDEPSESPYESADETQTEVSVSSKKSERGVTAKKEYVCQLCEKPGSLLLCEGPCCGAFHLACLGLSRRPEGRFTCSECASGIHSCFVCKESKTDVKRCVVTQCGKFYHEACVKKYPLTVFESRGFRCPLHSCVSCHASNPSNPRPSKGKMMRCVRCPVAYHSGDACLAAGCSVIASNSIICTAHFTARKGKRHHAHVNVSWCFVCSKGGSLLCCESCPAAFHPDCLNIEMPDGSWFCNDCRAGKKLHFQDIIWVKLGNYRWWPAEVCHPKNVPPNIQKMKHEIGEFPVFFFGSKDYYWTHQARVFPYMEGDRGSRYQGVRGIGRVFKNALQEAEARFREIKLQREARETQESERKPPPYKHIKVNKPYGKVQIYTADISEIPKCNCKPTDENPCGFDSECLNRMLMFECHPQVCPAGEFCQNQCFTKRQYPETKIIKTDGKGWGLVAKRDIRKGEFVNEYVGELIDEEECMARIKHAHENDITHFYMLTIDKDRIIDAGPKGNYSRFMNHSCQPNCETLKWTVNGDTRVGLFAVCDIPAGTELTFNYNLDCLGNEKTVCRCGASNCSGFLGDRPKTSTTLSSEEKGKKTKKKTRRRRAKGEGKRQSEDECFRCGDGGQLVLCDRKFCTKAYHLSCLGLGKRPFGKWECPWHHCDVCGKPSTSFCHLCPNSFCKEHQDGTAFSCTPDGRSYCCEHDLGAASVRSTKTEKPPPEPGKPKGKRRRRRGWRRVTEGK

[14] = LGR2 antagonists, dose response, cell-based, HEK293, CRE-luciferase reporter, cherry pick, set 2 (AID 743343); type: functional;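 further: transfected cells were stimulated with diluted bursicon conditioned medium after compound addition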
[15] = molecular target: Heat shock protein HSP 90-alpha (Homo sapiens, UniProt P07900); type: functional, organism-based
[16] = molecular target: T2, Heat shock factor protein 1; assay: inhibition of MG132-induced HSE-luciferase signal, confirmation, cell-based, NIH3T3, luminescence, dose retest (AID 2382); type: functional;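 further: NIH3T3 fibroblasts with HSF1-driven luciferase reporter stressed by proteasome inhibitor MG132; luminescence from HSF1-driven luciferase expression after 8 hours of MG132 stress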
[17] = A cytotoxicity screen of small molecule inhibitors of the PhoP region in Salmonella typhi identified in the primary screen. [Related pubchem assays: 1850, 1864, 1985 ]; type: functional
[18] = molecular target: T4, DNA repair and recombination protein RAD54-like (Homo sapiens, UniProt Q92698); assay: inhibitors of human RAD54 branch migration, confirmation, biochemical, fluorescence, cherry-picked samples, dose series (AID 651657); type: functional
T4 sequence (Q92698 whole entry): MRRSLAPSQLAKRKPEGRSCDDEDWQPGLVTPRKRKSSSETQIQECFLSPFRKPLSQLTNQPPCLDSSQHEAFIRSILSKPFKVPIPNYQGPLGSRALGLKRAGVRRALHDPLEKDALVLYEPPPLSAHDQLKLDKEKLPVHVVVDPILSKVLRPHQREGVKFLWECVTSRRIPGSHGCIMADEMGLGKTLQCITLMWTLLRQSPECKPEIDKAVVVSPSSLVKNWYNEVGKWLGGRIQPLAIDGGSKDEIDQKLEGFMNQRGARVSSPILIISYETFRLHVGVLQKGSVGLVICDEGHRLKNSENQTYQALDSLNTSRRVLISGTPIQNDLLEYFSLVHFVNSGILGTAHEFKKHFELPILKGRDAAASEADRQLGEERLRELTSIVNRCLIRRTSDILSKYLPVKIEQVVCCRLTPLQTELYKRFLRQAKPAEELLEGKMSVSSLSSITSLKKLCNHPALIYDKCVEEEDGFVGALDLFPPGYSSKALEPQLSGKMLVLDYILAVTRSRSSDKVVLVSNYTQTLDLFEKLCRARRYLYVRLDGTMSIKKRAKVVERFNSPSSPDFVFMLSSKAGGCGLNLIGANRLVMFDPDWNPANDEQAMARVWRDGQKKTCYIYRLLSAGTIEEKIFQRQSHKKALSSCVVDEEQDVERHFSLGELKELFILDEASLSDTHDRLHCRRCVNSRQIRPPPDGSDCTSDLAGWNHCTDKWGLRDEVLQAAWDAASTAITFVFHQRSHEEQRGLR

INS1 = assay: beta cell apoptosis inhibitors, cytokine rescue, dose response, luminescence, retest (AID 449756); type: functional, cell-based; conditions: Rattus norvegicus;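 further: cell death triggered by IL-1 beta plus TNF-alpha plus IFN-gamma mixture; protective hits raise ATP signal compared with cytokine alone wells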
[19] = molecular target: T5, Rac GTPase-activating protein 1 (Homo sapiens, UniProt Q9H0H5); assay: MgcRacGAP GTPase-activating activity inhibitors, confirmation, biochemical, ADP Hunter fluorescence, primary and confirmatory (AID 624330); type: functional
T5 sequence (Q9H0H5 whole entry): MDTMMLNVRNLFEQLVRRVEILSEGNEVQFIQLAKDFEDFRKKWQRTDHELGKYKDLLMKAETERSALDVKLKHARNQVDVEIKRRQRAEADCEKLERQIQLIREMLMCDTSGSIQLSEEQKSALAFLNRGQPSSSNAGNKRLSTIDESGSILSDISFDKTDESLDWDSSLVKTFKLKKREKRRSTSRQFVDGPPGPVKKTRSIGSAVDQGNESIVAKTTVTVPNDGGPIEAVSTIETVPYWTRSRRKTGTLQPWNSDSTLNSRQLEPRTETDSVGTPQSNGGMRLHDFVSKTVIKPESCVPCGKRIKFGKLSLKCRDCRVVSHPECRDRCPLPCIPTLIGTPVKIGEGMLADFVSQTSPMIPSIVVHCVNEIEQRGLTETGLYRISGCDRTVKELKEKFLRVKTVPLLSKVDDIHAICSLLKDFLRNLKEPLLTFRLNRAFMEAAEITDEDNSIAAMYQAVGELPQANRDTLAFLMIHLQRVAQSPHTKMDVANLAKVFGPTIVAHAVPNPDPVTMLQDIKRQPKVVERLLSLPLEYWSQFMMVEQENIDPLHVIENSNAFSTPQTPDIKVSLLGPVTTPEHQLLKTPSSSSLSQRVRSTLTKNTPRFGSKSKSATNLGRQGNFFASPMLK

Sequence of Large T antigen (P03070 whole entry): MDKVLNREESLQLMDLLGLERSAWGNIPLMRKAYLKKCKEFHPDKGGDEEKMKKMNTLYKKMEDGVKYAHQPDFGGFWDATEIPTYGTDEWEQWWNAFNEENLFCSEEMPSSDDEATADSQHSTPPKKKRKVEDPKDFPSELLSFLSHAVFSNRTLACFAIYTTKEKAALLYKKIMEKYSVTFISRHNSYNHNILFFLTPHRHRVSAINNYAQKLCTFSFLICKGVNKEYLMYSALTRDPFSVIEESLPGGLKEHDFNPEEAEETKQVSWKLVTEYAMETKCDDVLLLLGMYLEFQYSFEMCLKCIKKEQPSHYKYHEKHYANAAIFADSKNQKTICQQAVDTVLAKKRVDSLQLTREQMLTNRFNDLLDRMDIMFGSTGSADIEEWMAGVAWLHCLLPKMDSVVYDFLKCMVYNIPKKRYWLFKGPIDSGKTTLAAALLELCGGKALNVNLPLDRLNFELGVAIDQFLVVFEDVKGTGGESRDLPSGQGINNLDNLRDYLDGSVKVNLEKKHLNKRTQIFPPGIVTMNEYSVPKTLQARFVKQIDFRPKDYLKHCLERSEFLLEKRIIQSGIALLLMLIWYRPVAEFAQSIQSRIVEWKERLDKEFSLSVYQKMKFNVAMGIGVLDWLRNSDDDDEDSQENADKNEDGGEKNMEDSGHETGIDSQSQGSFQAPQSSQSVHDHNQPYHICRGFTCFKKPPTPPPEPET

CC(C)COC(=O)N(C)C[C@H]1OCc2ccccc2-c2c(n(C)c3ccccc23)C(=O)N([C@H](C)CO)C[C@@H]1C
AC50 [1]: < 0.26 µM (active) | AC50 [2]: 0.304 µM (active)

CCc1nn2cc(-c3ccccc3)nc2s1
AC50 (HEK293): 2.06 µM (active)

O=[N+]([O-])c1ccc(CNc2cccc(Cl)c2)s1
CC50 [3]: > 40 µM (active) | IC50 (cells): 48.6 µM (active)

O=c1cc(CN2CCN(Cc3ccccc3)CC2)c2ccc(O)c(O)c2o1
IC50 (Large T antigen): 4.91 µM (active) | EC50 [4]: > 160 µM (inactive)

CCn1nnc2cc(C(=O)NCCc3ccccc3F)ccc21
EC50 [5]: 5.03 µM (active) | EC50 [6]: 4.08 µM (active) | AC50 (HEK293): 3.14 µM (active)

COc1ccccc1S(=O)(=O)N(C)C[C@H]1Oc2cc(/C=C/c3ccccc3)ccc2S(=O)(=O)N([C@H](C)CO)C[C@@H]1C
AC50 [7]: 1.78 µM (active) | AC50 [8]: 2.43 µM (active) | AC50 [9]: 2.34 µM (active) | AC50 [10]: 1.9 µM (active)

O=C(NNC(=O)c1cc(Cl)ccc1[N+](=O)[O-])c1csc(N2CCOCC2)n1
EC50 [11]: > 300 µM (inconclusive)

CCN(CC)CCCn1c(=S)[nH]c2ncccc2c1=O
EC50 [12]: > 260 µM (inactive) | AC50 [13]: 9.8 µM (active)

COc1ccc2c3c([nH]c2c1)[C@H](CO)N(Cc1cccc(F)c1)CC31CCN(Cc2ccccn2)CC1
AC50 [7]: 0.922 µM (active) | AC50 [8]: 1.07 µM (active) | AC50 [9]: 0.902 µM (active) | AC50 [10]: 0.906 µM (active)

O=C(CC1CS(=O)(=O)CC1CC(=O)Nc1ccc2c(c1)OCCO2)Nc1ccc2c(c1)OCCO2 (configuration not stated)
AC50 [14]: 45.8 µM (active)

CN1C(=O)C(=C(Nc2ccc(F)cc2)c2ccccc2Cl)C(=O)N(C)C1=O
AC50 [15]: 3.17 µM (active)

Cc1nc(C)c(C(=O)Nc2ncc([N+](=O)[O-])s2)o1
EC50 [5]: 8.92 µM (inconclusive) | EC50 [6]: 10.2 µM (inconclusive) | AC50 (HEK293): 3.12 µM (active) | AC50 [13]: > 20 µM (inactive)

Cc1cc(C)nc(NS(=O)(=O)c2ccc(-n3cccc3)cc2)n1
EC50 [16]: > 195 µM (not active) | AC50 [13]: > 20 µM (inactive)

CCOC(=O)c1cc(-c2ccncc2)nc2c1c(C)nn2-c1ccccn1
EC50 [17]: > 50 µM (active) | AC50 [18]: 30.4 µM (active)

O=C(N/N=C/c1ccc(O)c(O)c1)c1cccc(S(=O)(=O)N2CCCC2)c1
IC50 (Large T antigen): 4.72 µM (active)

N#Cc1c2ccc([N+](=O)[O-])cc2[n+]([O-])n1-c1ccccc1
AC50 [15]: 2.86 µM (active) | AC50 (INS1): 3.15 µM (active)

CN(C1CCCCC1)S(=O)(=O)c1ccc(C(=O)N2CCN(c3nc4ccccc4s3)CC2)cc1
AC50 (HEK293): 2.85 µM (active)

CN(c1ccc(O)cc1)c1ccc([N+](=O)[O-])c2nonc12
AC50 [13]: > 20 µM (inactive) | IC50 [19]: 135 µM (active)

CC(=O)Oc1ccc(N(C(C)=O)S(=O)(=O)c2cccs2)c2ccccc12
CC50 [3]: 26.1 µM (active) | AC50 (INS1): 8.83 µM (active)

O=C(N/N=C/C(Br)=C/c1ccccc1)c1ccncc1
CC50 [3]: > 40 µM (active) | IC50 (cells): 0.61 µM (active)

COc1ccc(/C=C2/C(=O)N(Cc3ccco3)C(=O)N(C(C)C)C2=O)cc1
IC50 (Large T antigen): 80.6 µM (active)
